The data set is described as follows: Human HepG2 cell viability assay in 384 well format. Format: toxicity, cell-based. Details: dose 125 nL, time 70.5 hour; cytotoxicity at 70.5 h: concentration not given beside the values. The conditions noted are these: HepG2 cells, read-out: Inhibition.
On to `Cc1oc(C(C)C)cc1C(=O)N1C[C@H]2CC[C@@H]1CN(c1ncccn1)C2`, for which the cytotoxicity at 70.5 h is -13.7%.
Then `CNC(=O)[C@@H]1C[C@H](N)CN1Cc1cc2cc(C)cc(C)c2[nH]c1=O`, with -13.7%.
Then `CS(=O)(=O)N1CC2(CCN(C(=O)c3ccncc3)CC2)c2ccccc21`, with -6.91%; and `CCN(C)C(=O)c1cnc(-c2noc3cc(N4CCCCC4)ccc23)s1`, with 30.7%.
Take `c1ccc(CN2CCC3(CC2)CC(Nc2nccs2)CO3)nc1` (centres undefined): the cytotoxicity at 70.5 h is -8.19%.
Take `Cc1cc(C)n(CC2CCCN2C(=O)c2cc[nH]n2)n1` (centres undefined): the cytotoxicity at 70.5 h was -1.3%.
As for `Cc1ccc2cc(C3(O)CCN(C(=O)[C@@H]4CCCCN4)CC3)ccc2n1`, the figure is -2.74%; as for `O=C1CC2(CCN(C(=O)c3ccncc3)CC2)Oc2c(Cl)cc(Cl)cc21`, -5.1%; as for `Cn1cc(CN(CC2(O)CNCCOC2)C2CCCCC2)cn1` (centres undefined), -8.06%.
`CCN1C(=O)C(C)(C)c2cc(NC(=O)c3ccn(CC)n3)ccc21`: the cytotoxicity at 70.5 h was -19.5%.
Regarding `CN1CC(Nc2ccc(Br)cc2C#N)CCC1=O` (centres undefined), the cytotoxicity at 70.5 h was -0.708%.
As for `CN(Cc1ccncc1)C(=O)NC1CCCN(c2ncccn2)C1` (centres undefined), the figure is -1.22%.
As for `Cc1ccc(NC(C(N)=O)c2ccc(F)cc2)cc1` (centres undefined), the figure is -0.0602%; as for `Cc1cc(C)n(CCC(=O)N2CCCC(c3nc(C(C)C)no3)C2)n1` (centres undefined), -4.86%.
Then `Cc1ccc2c(n1)N(CCN(C)C)CCN(Cc1c(C)noc1C)C2`, with -2.08%; and `Cc1cc(=O)n(C)cc1NC(=O)Cc1cc(F)ccc1F`, with 2.11%.
Take `COCCn1cncc1Cn1cccc(C(F)(F)F)c1=O`: the cytotoxicity at 70.5 h was determined as 6.51%.
For `C=C(C)COc1ccc(C(=O)NCCn2c(C)cc(C)nc2=O)cc1`, the cytotoxicity at 70.5 h is -6.24%.
As to `CSc1cc2c(cc1NC(=O)NCc1ccncc1)OCCO2`, the cytotoxicity at 70.5 h was 2.15%.
As for `CC(C)Nc1cccc(CC2CCN(S(C)(=O)=O)CC2)n1`, the figure is 19.5%; as for `O=C(O)c1cccc(CC2CCN(c3ncc(F)cn3)CC2)c1`, -9.85%; as for `COCCN(C(=O)c1ccoc1C)c1ccc(C#N)cc1`, -4.2%.
For the molecule `CCCc1noc(CNc2ccc(C(=O)N3CCCC3)cc2C)n1`, the cytotoxicity at 70.5 h is -0.0635%.
Then `CCN1CCCC(O)(c2nc(C)c(CCOc3ccccc3F)s2)CC1` (centres undefined), with -8.35%; and `Cc1nnsc1CN1C[C@H]2CC[C@@H]1CN(Cc1ccccc1)C2`, with -1.08%; and `O=C(CCN1CCOC(Cn2cccn2)C1)NC1CCCCC1` (centres undefined), with -0.965%.
Then `Nc1nccc(C2CCCCN2Cc2cccc(F)c2)n1` (centres undefined), with -2.1%; and `Cc1cc(NC(=O)CN2CCCC2c2noc(C(C)C)n2)on1` (centres undefined), with -14.1%.
As to `Cc1nnc2n1CCN(Cc1ncc(-c3ccccc3)o1)C2`, the cytotoxicity at 70.5 h is -9.8%.
Consider `COCCc1noc(CN2CCCC2c2c(C)nn(C)c2C)n1` (centres undefined), for which the cytotoxicity at 70.5 h is -8.48%.
Then `Cc1nc(CN2CC(CO)Oc3ccccc32)sc1C` (centres undefined), with -3.25%; and `Cc1nn(C)cc1-c1ccnc(N(C)Cc2noc(C(C)C)n2)n1`, with -2.05%.
As for `CC1CCN(C(=O)c2cn(-c3cc(N4CCOCC4)ncn3)cn2)CC1`, the figure is -14%.
As for `COCc1cn(CC2CCN(Cc3nc(C)c[nH]3)CC2)nn1`, the figure is -8.76%; as for `COc1ccc(N2CCN(C(=O)c3cc(=O)c(OC)c[nH]3)CC2)cc1`, -6.09%.
As to `Cc1noc(C)c1C(=O)N(C)C(C)c1cccnc1` (centres undefined), the cytotoxicity at 70.5 h is -15.6%.
As for `O=C(NCc1ccccc1)[C@H]1C[C@@H]2CN(C(=O)NC3CCCC3)C[C@H]1O2`, the figure is 16.8%; as for `CCN1CCN(c2nc(O)cc(Cc3ccccc3F)n2)CC1`, -0.665%; as for `NC[C@H]1CC[C@H](C(NC(=O)C2CC2)c2ccccn2)CC1` (some centres undefined), -6.56%.
With `COCCN1C[C@@H](C)[C@@]2(COCCN(C(=O)c3ccncc3)C2)C1`, the cytotoxicity at 70.5 h is -3.32%.
Then `Cc1nocc1C(=O)N1CCCC2(CCN(c3cnn(C)c3)C2=O)C1` (centres undefined), with -3.71%; and `Nc1ncnc2[nH]c(N3CCCCC3)nc12`, with -6.41%.
As for `O=C(NC1CCCC1)[C@@H]1CN(Cc2nccs2)C[C@H]2OCC[C@H]21`, the figure is 33.7%.
Then `COc1cccc2c1OCC(C(=O)N1CCC(N3CCSCC3)CC1)C2` (centres undefined), with 4.8%.
Take `CCOc1c(CNC2CSCCSC2)cccc1OC`: the cytotoxicity at 70.5 h came out at 20.2%.
Then `CN1CCN(Cc2nnc(C3CCN(S(C)(=O)=O)CC3)n2C)CC1`, with -20.6%.
Take `CCn1c(SCC(N)=O)nnc1C(C)NC(=O)c1ccc(Cl)cc1` (centres undefined): the cytotoxicity at 70.5 h came to 17.8%.
As for `COc1ccc(CN2CCc3nc4ccsc4c(=O)n3CC2)c(C)c1C`, the figure is 39.8%.
For the molecule `COc1cc(O)cc2c1C(=O)CC(c1ccc(O)cc1)O2` (centres undefined), the cytotoxicity at 70.5 h is -14%.
For the molecule `Cc1nc(CN2CCC23CCN(Cc2ccoc2)CC3)cs1`, the cytotoxicity at 70.5 h was -6.82%.
As for `CN(C)Cc1ccnc(C2CCCN2Cc2cc3ccccc3s2)n1` (centres undefined), the figure is -1.24%; as for `CCn1cc(S(=O)(=O)Nc2nc3c(s2)CCCC3)cn1`, -5.28%.
As for `O=C(c1ccc(CN2CCCC2)cc1)N1CCCC(n2cccn2)C1` (centres undefined), the figure is -5.06%; as for `CCc1cccc(OC2CN(C(=O)[C@@H](N)CCSC)C2)c1`, -1.91%.
As for `COCCNC(=O)c1cc2c(c3ccccc3n2C)n1C(=O)N(C)C`, the figure is -9.07%.
`CN(C)C(=O)c1ccc2c(c1)nc(N1CC[C@H](O)C1)n2C`: the cytotoxicity at 70.5 h came to 19.5%.
As for `COc1cccc(CCC2CCCN(Cc3ncc[nH]3)C2)c1` (centres undefined), the cytotoxicity at 70.5 h amounted to 29.4%.
Then `CCc1nc(CN2CCCN(C(=O)C3CCOCC3)CC2)cs1`, with 18.1%; and `COC(=O)CCNC(=O)c1cc(-c2ccc(OC)cc2)nn1C`, with -3.5%; and `O=C1CN(C(=O)[C@H]2CC[C@]3(CC2)CNC(=O)c2ccccc2O3)CCN1`, with -8.28%.
Then `Cc1ncsc1CN1C[C@H]2OCC[C@H]2[C@H](C(=O)NCC2CC2)C1`, with 2.15%; and `Fc1ccccc1CN1CCC(c2n[nH]c(C3CC3)n2)CC1`, with -5.65%.
As for `CC(C)(C)CNCC1(O)CCCN(Cc2ccccc2F)C1=O` (centres undefined), the figure is 0.716%.
On to `Cc1ccc2c(c1)C(N1CCOCC1)CC21CCNCC1` (centres undefined), for which the cytotoxicity at 70.5 h is -8.36%.
Turning to `CCSc1ccc(C(=O)Nc2c(C)nn(C(C)C)c2C)cn1`, the cytotoxicity at 70.5 h worked out at 14.1%.
As for `COc1cc(C2SCC(=O)Nc3[nH]ncc32)cc2c1OCO2` (centres undefined), the figure is -10.8%; as for `CN1CCN(CC2CC2)C(=O)C12CCN(c1nccs1)CC2`, 7.83%; as for `Cc1occc1C(=O)N1CCCC1c1ccc(C(=O)N2CCOCC2)s1` (centres undefined), 9.73%.
As for `CC(C)Oc1ccc(CC2=N[C@](C)(CO)CO2)cc1`, the figure is 21.4%.
Then `O=C(CCN1CCCO1)N1CC[C@@H](CNC(=O)N2CCCC2)[C@H](O)C1`, with 14%; and `CC(=O)NCCc1cn(-c2cc(F)ccc2C)cn1`, with -8.56%.
As for `CC(C)(C)CC(=O)N1CC[C@H]2CC(=O)N(CCc3c[nH]cn3)CC[C@H]2C1`, the cytotoxicity at 70.5 h was -4.11%.
Then `COc1cccc(CN2C[C@@H]3COC[C@]3(CNC(=O)C3CC3)C2)c1`, with -9.15%; and `Cc1cccc(C(=O)N2CCCCC2c2nc3cc(F)ccc3[nH]2)n1` (centres undefined), with -11.8%.
Then `COc1ccc(OC)c(CN2CCCCCC2c2cccs2)c1` (centres undefined), with 31.6%.
As for `O=C1N(c2cccnc2)CCC12CCCN(Cc1cccnc1)C2` (centres undefined), the figure is -4.25%.
Turning to `O=C(NCCCn1ccnc1)NCC(c1ccco1)N1CCCC1` (centres undefined), the cytotoxicity at 70.5 h is 5.06%.
Take `Cc1nc2n(n1)CC(NCCCc1nc(-c3cccs3)no1)CC2` (centres undefined): the cytotoxicity at 70.5 h turned out to be 4.3%.
As for `CCOCC(C)(C)NC(=O)Nc1cc(F)ccc1OC`, the figure is -5.66%; as for `O=S(=O)(c1cc2ccccc2o1)N1CCCC1`, 4.69%.
As for `O=C(O)c1ccc2ccc(N3CCN(CC4CC4)CC3)n2c1`, the figure is -9.01%; as for `Cc1nc(NCc2nccn2C)cc(C2COCCN2)n1` (centres undefined), -11.1%; as for `O=C(OCCNc1ncccn1)c1ccc(Br)s1`, -0.709%.
As for `O=C(O)c1ccnc(-c2ccnc(N3CCCCCC3)n2)c1`, the figure is 17.6%.
Turning to `COCC(=O)N1CCN(c2ccc(C(=O)OC)cc2)CC1C` (centres undefined), the cytotoxicity at 70.5 h was 20.1%.
As for `CC(NC(=O)N1CCC(CO)CC1)c1csc2ccccc12` (centres undefined), the figure is -1.97%; as for `O=C(NCCNc1cnccn1)N1CCCC1`, 5.69%.
As for `CN(C)C(=O)N1C[C@@H]2CC[C@H](C1)N(C/C=C/c1ccc(F)cc1)C2`, the figure is -9.21%.
Then `CN1CCN(c2ncccn2)CC(C(=O)N(C)C)C1` (centres undefined), with -5.5%; and `Cc1nc(C(C)C)sc1C(=O)NCCSc1nccn1C`, with -10.1%.
Take `Cc1ccc(N2CCCC(NCc3ccsc3)C2)nn1` (centres undefined): the cytotoxicity at 70.5 h is -4.89%.
Then `O=C(NCCc1ccccn1)[C@@]12CCO[C@@H]1CCN(CC1CC1)C2`, with -5.28%; and `Cc1ccc(CN2CC(C(=O)NC(C)C)C3(CCOCC3)C2)s1` (centres undefined), with -11.4%.
As for `Cc1cscc1C(=O)Nc1cncnc1N(C)C`, the figure is -7.99%; as for `Cc1ccc(NC(=O)C2CSCN2C(=O)c2cnsn2)c(C)c1` (centres undefined), -6.91%.
As for `COCCN1CCN(c2nc(C3CCCC3)nc3c2cnn3C)CC1`, the figure is -16.1%; as for `O=C(CN(Cc1cccs1)C1CCS(=O)(=O)C1)NC1CCCCC1` (centres undefined), 26.4%; as for `CCN(CC)S(=O)(=O)N(Cc1cccc(C)c1)Cc1ccccn1`, 19.3%.
Turning to `CCn1cc(S(=O)(=O)NC(=O)CCc2c[nH]c3ccccc23)cn1`, the cytotoxicity at 70.5 h is -0.706%.

These data come from ChEMBL document CHEMBL3507680, “University of Dundee, Gates Library screen for HepG2 cell viability”.
